Data reported in the NIST ThermoML archive (doi:10.1016/j.jct.2015.04.027).
Numbers after ± are expanded uncertainties.

Test: xn = mol fraction of the nth substance listed
Details: 100 kPa, Liquid; for viscosity: Falling or rolling sphere viscometry; for mass density: Vibrating tube method

SMILES: CN(C)C(=[NH2+])N(C)C.c1c[n-]cn1 [1,1,3,3-tetramethylguanidinium imidazol-1-ide] + CCCCO
- viscosity (293.15 K, x1 = 0.0499): 3.053 ± 0.065 mPa·s
- viscosity (293.15 K, x1 = 0.1004): 3.248 ± 0.07 mPa·s
- viscosity (293.15 K, x1 = 0.1999): 3.727 ± 0.08 mPa·s
- viscosity (293.15 K, x1 = 0.2997): 4.41 ± 0.095 mPa·s
- viscosity (293.15 K, x1 = 0.3985): 5.155 ± 0.11 mPa·s
- viscosity (293.15 K, x1 = 0.4997): 6.003 ± 0.13 mPa·s
- viscosity (293.15 K, x1 = 0.6499): 7.076 ± 0.15 mPa·s
- viscosity (293.15 K, x1 = 0.8002): 8.02 ± 0.18 mPa·s
- viscosity (293.15 K, x1 = 0.9004): 8.6 ± 0.19 mPa·s
- viscosity (293.15 K, x1 = 1): 8.952 ± 0.2 mPa·s
- mass density (293.15 K, x1 = 0.0499): 828.74 ± 0.39 kg/m3
- mass density (293.15 K, x1 = 0.1004): 845.73 ± 0.34 kg/m3
- mass density (293.15 K, x1 = 0.1999): 875.01 ± 0.31 kg/m3
- mass density (293.15 K, x1 = 0.2997): 899.57 ± 0.27 kg/m3
- mass density (293.15 K, x1 = 0.3985): 920.24 ± 0.25 kg/m3
- mass density (293.15 K, x1 = 0.4997): 938.26 ± 0.22 kg/m3
- mass density (293.15 K, x1 = 0.6499): 960.31 ± 0.22 kg/m3
- mass density (293.15 K, x1 = 0.8002): 978.39 ± 0.23 kg/m3
- mass density (293.15 K, x1 = 0.9004): 988.56 ± 0.24 kg/m3
- mass density (293.15 K, x1 = 1): 997.25 ± 0.25 kg/m3
- viscosity (298.15 K, x1 = 0.0499): 2.7 ± 0.058 mPa·s
- viscosity (298.15 K, x1 = 0.1004): 2.868 ± 0.062 mPa·s
- viscosity (298.15 K, x1 = 0.1999): 3.272 ± 0.07 mPa·s
- viscosity (298.15 K, x1 = 0.2997): 3.801 ± 0.082 mPa·s
- viscosity (298.15 K, x1 = 0.3985): 4.414 ± 0.095 mPa·s
- viscosity (298.15 K, x1 = 0.4997): 5.029 ± 0.11 mPa·s
- viscosity (298.15 K, x1 = 0.6499): 5.887 ± 0.13 mPa·s
- viscosity (298.15 K, x1 = 0.8002): 6.617 ± 0.14 mPa·s
- viscosity (298.15 K, x1 = 0.9004): 7.032 ± 0.15 mPa·s
- viscosity (298.15 K, x1 = 1): 7.287 ± 0.16 mPa·s
- mass density (298.15 K, x1 = 0.0499): 824.87 ± 0.39 kg/m3
- mass density (298.15 K, x1 = 0.1004): 841.79 ± 0.34 kg/m3
- mass density (298.15 K, x1 = 0.1999): 870.95 ± 0.31 kg/m3
- mass density (298.15 K, x1 = 0.2997): 895.41 ± 0.28 kg/m3
- mass density (298.15 K, x1 = 0.3985): 916.05 ± 0.25 kg/m3
- mass density (298.15 K, x1 = 0.4997): 933.99 ± 0.23 kg/m3
- mass density (298.15 K, x1 = 0.6499): 955.97 ± 0.23 kg/m3
- mass density (298.15 K, x1 = 0.8002): 974 ± 0.24 kg/m3
- mass density (298.15 K, x1 = 0.9004): 984.14 ± 0.24 kg/m3
- mass density (298.15 K, x1 = 1): 992.8 ± 0.25 kg/m3
- viscosity (303.15 K, x1 = 0.0499): 2.399 ± 0.051 mPa·s
- viscosity (303.15 K, x1 = 0.1004): 2.549 ± 0.055 mPa·s
- viscosity (303.15 K, x1 = 0.1999): 2.89 ± 0.062 mPa·s
- viscosity (303.15 K, x1 = 0.2997): 3.323 ± 0.072 mPa·s
- viscosity (303.15 K, x1 = 0.3985): 3.823 ± 0.083 mPa·s
- viscosity (303.15 K, x1 = 0.4997): 4.322 ± 0.094 mPa·s
- viscosity (303.15 K, x1 = 0.6499): 5 ± 0.11 mPa·s
- viscosity (303.15 K, x1 = 0.8002): 5.547 ± 0.12 mPa·s
- viscosity (303.15 K, x1 = 0.9004): 5.877 ± 0.13 mPa·s
- viscosity (303.15 K, x1 = 1): 6.044 ± 0.13 mPa·s
- mass density (303.15 K, x1 = 0.0499): 820.97 ± 0.39 kg/m3
- mass density (303.15 K, x1 = 0.1004): 837.82 ± 0.34 kg/m3
- mass density (303.15 K, x1 = 0.1999): 866.87 ± 0.31 kg/m3
- mass density (303.15 K, x1 = 0.2997): 891.24 ± 0.28 kg/m3
- mass density (303.15 K, x1 = 0.3985): 911.78 ± 0.25 kg/m3
- mass density (303.15 K, x1 = 0.4997): 929.7 ± 0.23 kg/m3
- mass density (303.15 K, x1 = 0.6499): 951.62 ± 0.23 kg/m3
- mass density (303.15 K, x1 = 0.8002): 969.59 ± 0.24 kg/m3
- mass density (303.15 K, x1 = 0.9004): 979.72 ± 0.24 kg/m3
- mass density (303.15 K, x1 = 1): 988.35 ± 0.25 kg/m3
- viscosity (308.15 K, x1 = 0.0499): 2.141 ± 0.046 mPa·s
- viscosity (308.15 K, x1 = 0.1004): 2.276 ± 0.049 mPa·s
- viscosity (308.15 K, x1 = 0.1999): 2.569 ± 0.055 mPa·s
- viscosity (308.15 K, x1 = 0.2997): 2.931 ± 0.063 mPa·s
- viscosity (308.15 K, x1 = 0.3985): 3.343 ± 0.072 mPa·s
- viscosity (308.15 K, x1 = 0.4997): 3.751 ± 0.081 mPa·s
- viscosity (308.15 K, x1 = 0.6499): 4.267 ± 0.093 mPa·s
- viscosity (308.15 K, x1 = 0.8002): 4.739 ± 0.1 mPa·s
- viscosity (308.15 K, x1 = 0.9004): 5.021 ± 0.11 mPa·s
- viscosity (308.15 K, x1 = 1): 5.097 ± 0.11 mPa·s
- mass density (308.15 K, x1 = 0.0499): 817.04 ± 0.39 kg/m3
- mass density (308.15 K, x1 = 0.1004): 833.83 ± 0.34 kg/m3
- mass density (308.15 K, x1 = 0.1999): 862.77 ± 0.31 kg/m3
- mass density (308.15 K, x1 = 0.2997): 887.07 ± 0.28 kg/m3
- mass density (308.15 K, x1 = 0.3985): 907.55 ± 0.25 kg/m3
- mass density (308.15 K, x1 = 0.4997): 925.4 ± 0.23 kg/m3
- mass density (308.15 K, x1 = 0.6499): 947.27 ± 0.23 kg/m3
- mass density (308.15 K, x1 = 0.8002): 965.19 ± 0.24 kg/m3
- mass density (308.15 K, x1 = 0.9004): 975.28 ± 0.24 kg/m3
- mass density (308.15 K, x1 = 1): 983.9 ± 0.25 kg/m3
- viscosity (313.15 K, x1 = 0.0499): 1.92 ± 0.041 mPa·s
- viscosity (313.15 K, x1 = 0.1004): 2.04 ± 0.044 mPa·s
- viscosity (313.15 K, x1 = 0.1999): 2.298 ± 0.049 mPa·s
- viscosity (313.15 K, x1 = 0.2997): 2.604 ± 0.056 mPa·s
- viscosity (313.15 K, x1 = 0.3985): 2.948 ± 0.064 mPa·s
- viscosity (313.15 K, x1 = 0.4997): 3.286 ± 0.071 mPa·s
- viscosity (313.15 K, x1 = 0.6499): 3.737 ± 0.081 mPa·s
- viscosity (313.15 K, x1 = 0.8002): 4.097 ± 0.09 mPa·s
- viscosity (313.15 K, x1 = 0.9004): 4.299 ± 0.095 mPa·s
- viscosity (313.15 K, x1 = 1): 4.358 ± 0.096 mPa·s
- mass density (313.15 K, x1 = 0.0499): 813.07 ± 0.39 kg/m3
- mass density (313.15 K, x1 = 0.1004): 829.83 ± 0.35 kg/m3
- mass density (313.15 K, x1 = 0.1999): 858.67 ± 0.32 kg/m3
- mass density (313.15 K, x1 = 0.2997): 882.9 ± 0.29 kg/m3
- mass density (313.15 K, x1 = 0.3985): 903.31 ± 0.26 kg/m3
- mass density (313.15 K, x1 = 0.4997): 921.09 ± 0.24 kg/m3
- mass density (313.15 K, x1 = 0.6499): 942.92 ± 0.24 kg/m3
- mass density (313.15 K, x1 = 0.8002): 960.8 ± 0.24 kg/m3
- mass density (313.15 K, x1 = 0.9004): 970.84 ± 0.25 kg/m3
- mass density (313.15 K, x1 = 1): 979.46 ± 0.25 kg/m3
